Laboratory results taken from US4962109A, “Insecticidally and acaricidally active pyrimidine esters and intermediates therefor” (Imperial Chemical Industries PLC, priority 1985, dated 1990).

Assays:
Type in all cases: in vivo
[1] = system: Tetranychus urticae (spider mites - adult); assay: Contact test on spider mites - adult (TUa), French bean leaf, mortality; conditions: 72 h, 500 ppm, contact, 3 days, read-out: TUa grading of mortality
Method in brief: (§1)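 Product dissolved in acetone, diluted in water with 0.01% wetting agent to 500, 250 or 100 ppm; pests and/or host medium (plant or foodstuff) treated. Mortality or knockdown assessed 1–3 days later, graded A (80–100%), B (50–79%) or C (<50%).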

[2] = system: Tetranychus urticae (spider mites - ova); assay: Contact test on spider mites - ova (TUe), French bean leaf, mortality; conditions: 144 h, 500 ppm, contact, 6 days, read-out: TUe grading of mortality
Method in brief: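 Graded read-out: A 80-100%, B 50-79%, C below 50% mortality or knockdown, assessed usually 1-3 days post-treatment. Liquid preparations at 500, 250 or 100 ppm by weight, from acetone solution diluted in water with 0.01% wetting agent, applied to pests and/or their host plant or food medium.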

Myzus persicae (aphids) = assay: Contact test on aphids (MP), Chinese Cabbage leaf, mortality; conditions: 72 h, 500 ppm, contact, 3 days, read-out: MP grading of mortality
Method in brief: as §1

[3] = system: Nilaparvata lugens (brown plant hopper); assay: Contact test on brown plant hopper (NL), Rice plant, mortality; conditions: 72 h, 3 days, read-out: NL grading of mortality
Procedure: (§2) The activity of the Product was determined using a variety of insect pests. The Product was used in the form of liquid preparations containing 500, 250 or 100 parts per million (ppm) by weight of the Product. The preparations were made by dissolving the Product in acetone and diluting the solutions with water containing 0.01% by weight of a wetting agent sold under the trade name "LISSAPOL" NX until the liquid preparations contained the required concentration of the Product. "Lissapol" is a Registered Trade Mark.
(§3) The test procedure adopted with regard to each pest was basically the same and comprised supporting a number of the pests on a medium which was usually a host plant or a foodstuff on which the pests feed, and treating either or both the pests and the medium with the preparations. The mortality of the pests was then assessed at periods usually varying from one to three days after the treatment.
(§4) The results of the tests are given in Table III for each of the Products, at the rate in parts per million given in the second column as a grading of mortality designated as A, B or C wherein A indicates 80-100% mortality or knockdown, B indicates 50-79% mortality or knockdown and C indicates less than 50% mortality or knockdown.

[4] = system: Musca domestica (houseflies - adults); assay: Knockdown test on houseflies - adults (MD/KD), Cotton wool/sugar; conditions: 500 ppm, 4 hours, read-out: MD/KD grading of knockdown
Method in brief: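 Adult houseflies exposed to the compound at 500, 250 or 100 ppm in acetone/water with 0.01% wetting agent, on a cotton wool/sugar medium. Knockdown and mortality assessed, graded A (80-100%), B (50-79%) or C (<50%).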

[5] = system: Musca domestica (houseflies - adults); assay: Contact test on houseflies - adults (MD), Cotton wool/sugar, mortality; conditions: 24 h, 500 ppm, contact, ** test duration of 1 day, read-out: MD grading of mortality
Method in brief: as §1

[6] = system: Blattella germanica (cockroach nymphs); assay: Residual test on cockroach nymphs (BG/R), Plastic pot, mortality; conditions: 72 h, 3 days, read-out: BG/R grading of mortality
Procedure: as §2, §3, §4
BG/R Blattella germanica

[7] = system: Heliothis virescens (tobacco budworm - larvae); assay: Residual test on tobacco budworm larvae (HV), Cotton leaf, mortality; conditions: 48 h, read-out: HV grading of mortality
Method in brief: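 Product in acetone diluted with water containing 0.01% Lissapol NX, at 500, 250 or 100 ppm; pests and/or host medium (here cotton leaf) treated. Mortality scored one to three days later, graded A (80-100%), B (50-79%), C (<50%).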

[8] = system: Spodoptera exigua (lesser army worm - larvae); assay: Residual test on lesser army worm larvae (SP), Cotton leaf, mortality; conditions: 48 h, 500 ppm, residual, * test duration of 3 days, read-out: SP grading of mortality
Method in brief: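 Product dissolved in acetone and diluted in water with 0.01% wetting agent to 500, 250 or 100 ppm; larvae and/or cotton leaf host treated. Mortality or knockdown scored one to three days later and graded A (80-100%), B (50-79%) or C (<50%).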

[9] = system: Diabrotica balteata (rootworm larvae); assay: Residual test on rootworm larvae (DB), Filter paper/maize seed, mortality; conditions: 48 h, 500 ppm, residual, * test duration of 3 days, read-out: DB grading of mortality
Method in brief: as §1

[10] = system: Nephotettix cincticeps (green leaf hopper - nymphs); assay: Contact test on green leaf hopper nymphs (NC), Rice plant, mortality; conditions: 72 h, 500 ppm, contact, * test duration of 3 days, read-out: NC grading of mortality
Method in brief: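 Product dissolved in acetone, diluted in water with 0.01% wetting agent to 500, 250 or 100 ppm; nymphs and/or host rice plants treated. Mortality or knockdown assessed 1–3 days later, graded A (80-100%), B (50-79%), C (<50%).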

insect and acarine pests = assay: Biological screening of enantiomers, insecticidal and acaricidal activity; conditions: (-) versus (+) enantiomer

| SMILES | mortality at 500 ppm [1] [%] | mortality at 500 ppm [2] [%] | mortality at 500 ppm (Myzus persicae (aphids)) [%] | mortality at 500 ppm [3] [%] | pest or weed control at 500 ppm [4] [%] | mortality at 500 ppm [5] [%] | mortality at 500 ppm [6] [%] | mortality at 500 ppm [7] [%] | mortality at 500 ppm [8] [%] | mortality at 500 ppm [9] [%] | mortality at 500 ppm [10] [%] | insecticidal and acaricidal activity of enantiomers (insect and acarine pests) |
| --- | --- | --- | --- | --- | --- | --- | --- | --- | --- | --- | --- | --- |
| C=CCc1c(F)c(F)c(COC(=O)C(c2cnc(-c3ccccc3)nc2)C(C)C)c(F)c1F (racemic) [Compound 113, 4-(prop-2-en-1-yl)-2,3,5,6-tetrafluorobenzyl (RS)-2-[2-phenylpyrimidin-5-yl)-3-methylbutanoate] | < 50 | < 50 | 50 to 79 | < 50 | 80 to 100 | 80 to 100 | < 50 | < 50 | < 50 | < 50 |  |  |
| C=CCc1c(F)c(F)c(COC(=O)C(c2cnc(N(C)C)nc2)C(C)C)c(F)c1F (racemic) [Compound 115, 2,3,5,6-tetrafluoro-4-(prop-2-en-1-yl)benzyl (RS)-2-[2-(N,N-dimethylamino)pyrimidin-5-yl]-3-methylbutanoate] | 80 to 100 | 80 to 100 | 80 to 100 | < 50 | < 50 | 80 to 100 | 80 to 100 | 80 to 100 | 80 to 100 | < 50 |  |  |
| COCc1c(F)c(F)c(COC(=O)C(c2cnc(C(F)(F)F)nc2)C(C)C)c(F)c1F (racemic) [Compound 116, 2,3,5,6-tetrafluoro-4-(methoxymethyl)benzyl (RS)-2-(2-trifluoromethylpyrimidin-5-yl)-3-methylbutanoate] | 80 to 100 | 80 to 100 | 80 to 100 | 80 to 100 | 80 to 100 | 80 to 100 | 80 to 100 | 80 to 100 | 80 to 100 | 80 to 100 |  |  |
| C=CCc1c(F)c(F)c(COC(=O)C(c2cnc(C(Cl)(Cl)Cl)nc2)C(C)C)c(F)c1F (racemic) [Compound 117, 2,3,5,6-tetrafluoro-4-(prop-2-en-1-yl)benzyl (RS)-2-(2-trichloromethylpyrimidin-5-yl)-3-methylbutanoate] | 80 to 100 | 80 to 100 | 80 to 100 | 80 to 100 | 80 to 100 | 80 to 100 | 80 to 100 | 80 to 100 | 80 to 100 | 50 to 79 |  |  |
| COCc1c(F)c(F)c(COC(=O)C(c2cnc(Cl)nc2)C(C)C)c(F)c1F (racemic) [Compound 118, 2,3,5,6-tetrafluoro-4-(methoxymethyl)benzyl (RS)-2-(2-chloropyrimidin-5-yl)-3-methylbutanoate] | 50 to 79 | < 50 | 80 to 100 | < 50 |  | 80 to 100 | < 50 | 50 to 79 | 50 to 79 | < 50 |  |  |
| CC[C@@H](C(=O)O[C@@H](C#N)c1ccc(F)c(Oc2ccccc2)c1)c1cnc(C(C)(C)C)nc1 (racemic) [Compound 121, (RS)-α-cyano-4-fluoro-3-phenoxybenzyl (RS)-2-[2-(1,1-dimethylethyl)pyrimidin-5-yl]butanoate] | 80 to 100 | < 50 | 80 to 100 | < 50 | 50 to 79 | 80 to 100 | < 50 | 80 to 100 | 80 to 100 | 80 to 100 |  |  |
| CCC(C(=O)OCc1c(F)c(F)c(C)c(F)c1F)c1cnc(C(C)(C)C)nc1 (racemic) [Compound 122, 2,3,5,6-tetrafluoro-4-methyl (RS)-2-[2-(1,1-dimethylethyl)pyrimidin-5-yl]butanoate] | 80 to 100 | < 50 | 80 to 100 | < 50 | 80 to 100 | 80 to 100 | < 50 | 80 to 100 | 80 to 100 | 50 to 79 |  |  |
| C=CCc1c(F)c(F)c(COC(=O)C(CC)c2cnc(C(C)(C)C)nc2)c(F)c1F (racemic) [Compound 123, 2,3,5,6-tetrafluoro-4-(prop-2-en-1-yl)benzyl (RS)-2-[2-(1,1-dimethylethyl)pyrimidin-5-yl]butanoate] | 80 to 100 | 80 to 100 | 80 to 100 | 80 to 100 | 80 to 100 | 80 to 100 | 50 to 79 | 80 to 100 | 80 to 100 | < 50 |  |  |
| COCc1c(F)c(F)c(COC(=O)C(c2cnc(C)nc2)C(C)C)c(F)c1F (racemic) [Compound 214, 4-(methoxymethyl)-2,3,5,6-tetrafluoroenzyl (RS)-2-(2-methylpyrimidin-5-yl)-3-methylbutanoate] | 80 to 100 | < 50 | 80 to 100 |  | 80 to 100 | 50 to 79 | 80 to 100 | < 50 | 80 to 100 | < 50 | 80 to 100 |  |
| COCc1c(F)c(F)c(COC(=O)C(c2cnc(C(C)(C)C)nc2)C(C)(C)C)c(F)c1F (single isomer, unassigned; enantiomer 4) [(-)-enantiomer, 4-(methoxymethyl)-2,3,5,6-tetrafluorobenzyl 2-[2-(1,1-dimethylethyl)pyrimidin-5-yl]-3,3-dimethylbutanoate] |  |  |  |  |  |  |  |  |  |  |  | substantially greater insecticidal and acaricidal activity than the (+)-enantiomer |
